Measured values as given in patent publication US12240892B2, “Pharmaceutical composition comprising expression or activity inhibitor of c-src for preventing or treating synucleinopathy” (AJOU UNIVERSITY INDUSTRY-ACADEMIC COOPERATION FOUNDATION, priority 2018, dated 2025).

Experiments:
[1] = system: SHSY5Y overexpressing A53T eGFP; test: Amount of aggregated α-syn in differentiated cells overexpressing A53T eGFP, confocal microscopy; type: cell-based; details: for amount of α-syn aggregated in the cells: Src KD SHSY5Y overexpressing A53T eGFP, 50 μM retinoid acid, differentiated 5 days
[2] = system: SHSY5Y cell line; test: α-syn intercellular migration, two-chamber co-culture, immunostaining and confocal microscopy; type: cell-based; details: 0.1 μM saracatinib, 10 μM SKI; co-culture 12 hours with SHSY5Y overexpressing α-syn; vs PBS control
Experimental: The SHSY5Y cell overexpressing alpha-synuclein was seeded at 4×10^4 in a 12-well plate in an insert well using a two-chamber system, and the SHSY5Y cell line was seeded at 4×10^4 on the cover glass. The next day, the insert well was transferred to a 12-well cover glass, and during co-culture for 12 hours, the SHSY5Y cell line was treated with 0.1 μM saracatinib and 10 μM SKI (c-src kinase inhibitor I), which are c-src inhibitors, and then alpha-synuclein in SHSY5Y cell line on the cover glass was immunostained (α-syn: red, nucleus: blue) and observed using a confocal microscope to confirm that alpha-synuclein was migrated from SHSY5Y overexpressing alpha-synuclein to SHSY5Y not overexpressing alpha-synuclein.
Next, c-src knockdown SHSY5Y cell lines (KD #1 and KD #2), constructed using shRNAs of […], and dopaminergic neuronal cell line SHSY5Y overexpressing α-syn were co-cultured for 12 hours using a two-chamber system. The co-culture will be described in brief. SHSY5Y cells were seeded at a concentration of 4×10^4 cells/well on a 12-well cover glass. […]

Molecule | amount of α-syn aggregated in the cells [1] | migration of α-syn [2] | amount of aggregated α-syn ([1]; 10 μM SKI, 0.5 μM saracatinib, differentiated with 50 μM RA)
SEQ ID NO: 2: shRNA against c-src: CCGGGACAGACCUGUCCUUCAAGAACUCGAGUUCUUGAAGGACAGGUCUGUCUUUUUG (listed as RNA, chemistry not fully specified) | decreased |  | 
COc1cc2ncnc(Nc3ccc(Oc4ccccc4)cc3)c2cc1OC [SKI] |  | reduced | decreased
SEQ ID NO: 1: shRNA against c-src: CCGGGCUCGGCUCAUUGAAGACAAUCUCGAGAUUGUCUUCAAUGAGCCGAGCUUUUUG | decreased |  | 
